From US8148391B2 (Cephalon, Inc., priority 2006, dated 2012) come the findings set out here.

Assay [1] has as its target T1, baculovirus-expressed ALK (Homo sapiens, UniProt Q9UM73).
T1 construct: host or cells: baculovirus expression system
As to the kind of experiment: ALK Kinase Assay (ELISA-type, time-resolved fluorescence). It is filed as biochemical. The note with it: 1 μM ATP (Km level); read-out: ALK Activity (ALK Kinase Inhibition, IC50). Put shortly: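 Plates coated with phospholipase C-γ substrate (10 μg/mL in TBS); reaction started with 30 ng/ml ALK and run 15 min at 37° C. Phosphorylated substrate detected with Eu-N1-labeled PT66 antibody. IC50 from sigmoidal variable-slope fit of percent inhibition vs log concentration.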
A general note: An ELISA detects its analyte on a solid surface through an enzyme-linked reagent.

The target in assay [2] is T2, c-Met (cytoplasmic domain) (Homo sapiens, UniProt P08581).
T2 construct: 10 ng/mL c-Met (cytoplasmic domain, Invitrogen Corporation #PV3143); purchased Invitrogen Corporation PV3143
T2 sequence (P08581 956-1390 limits assumed): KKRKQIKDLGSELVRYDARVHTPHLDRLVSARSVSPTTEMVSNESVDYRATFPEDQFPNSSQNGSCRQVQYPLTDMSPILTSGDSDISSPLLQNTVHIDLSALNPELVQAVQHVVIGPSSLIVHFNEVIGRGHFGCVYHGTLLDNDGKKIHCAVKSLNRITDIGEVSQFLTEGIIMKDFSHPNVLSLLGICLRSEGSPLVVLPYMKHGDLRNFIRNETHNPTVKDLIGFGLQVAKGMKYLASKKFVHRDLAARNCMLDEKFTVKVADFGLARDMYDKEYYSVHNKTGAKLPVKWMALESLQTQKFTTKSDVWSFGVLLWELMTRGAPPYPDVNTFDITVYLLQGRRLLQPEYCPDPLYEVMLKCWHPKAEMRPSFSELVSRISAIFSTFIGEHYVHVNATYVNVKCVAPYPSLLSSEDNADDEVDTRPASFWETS
As to the kind of experiment: c-Met Kinase Assay (same methods as for ALK, with modifications). The class given is biochemical. As to conditions: 1 μM ATP (Km level); read-out: cMet Activity (c-Met Kinase Inhibition, IC50). Put shortly:
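Europium-labeled PT66 antibody (Eu-N1) detects substrate phosphorylation on wells coated with phospholipase C-γ at 10 μg/mL. The kinase, the cytoplasmic domain of c-Met at 10 ng/mL, starts the reaction, which proceeds 15 minutes at 37° C.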

T1 sequence (Q9UM73 19-1620): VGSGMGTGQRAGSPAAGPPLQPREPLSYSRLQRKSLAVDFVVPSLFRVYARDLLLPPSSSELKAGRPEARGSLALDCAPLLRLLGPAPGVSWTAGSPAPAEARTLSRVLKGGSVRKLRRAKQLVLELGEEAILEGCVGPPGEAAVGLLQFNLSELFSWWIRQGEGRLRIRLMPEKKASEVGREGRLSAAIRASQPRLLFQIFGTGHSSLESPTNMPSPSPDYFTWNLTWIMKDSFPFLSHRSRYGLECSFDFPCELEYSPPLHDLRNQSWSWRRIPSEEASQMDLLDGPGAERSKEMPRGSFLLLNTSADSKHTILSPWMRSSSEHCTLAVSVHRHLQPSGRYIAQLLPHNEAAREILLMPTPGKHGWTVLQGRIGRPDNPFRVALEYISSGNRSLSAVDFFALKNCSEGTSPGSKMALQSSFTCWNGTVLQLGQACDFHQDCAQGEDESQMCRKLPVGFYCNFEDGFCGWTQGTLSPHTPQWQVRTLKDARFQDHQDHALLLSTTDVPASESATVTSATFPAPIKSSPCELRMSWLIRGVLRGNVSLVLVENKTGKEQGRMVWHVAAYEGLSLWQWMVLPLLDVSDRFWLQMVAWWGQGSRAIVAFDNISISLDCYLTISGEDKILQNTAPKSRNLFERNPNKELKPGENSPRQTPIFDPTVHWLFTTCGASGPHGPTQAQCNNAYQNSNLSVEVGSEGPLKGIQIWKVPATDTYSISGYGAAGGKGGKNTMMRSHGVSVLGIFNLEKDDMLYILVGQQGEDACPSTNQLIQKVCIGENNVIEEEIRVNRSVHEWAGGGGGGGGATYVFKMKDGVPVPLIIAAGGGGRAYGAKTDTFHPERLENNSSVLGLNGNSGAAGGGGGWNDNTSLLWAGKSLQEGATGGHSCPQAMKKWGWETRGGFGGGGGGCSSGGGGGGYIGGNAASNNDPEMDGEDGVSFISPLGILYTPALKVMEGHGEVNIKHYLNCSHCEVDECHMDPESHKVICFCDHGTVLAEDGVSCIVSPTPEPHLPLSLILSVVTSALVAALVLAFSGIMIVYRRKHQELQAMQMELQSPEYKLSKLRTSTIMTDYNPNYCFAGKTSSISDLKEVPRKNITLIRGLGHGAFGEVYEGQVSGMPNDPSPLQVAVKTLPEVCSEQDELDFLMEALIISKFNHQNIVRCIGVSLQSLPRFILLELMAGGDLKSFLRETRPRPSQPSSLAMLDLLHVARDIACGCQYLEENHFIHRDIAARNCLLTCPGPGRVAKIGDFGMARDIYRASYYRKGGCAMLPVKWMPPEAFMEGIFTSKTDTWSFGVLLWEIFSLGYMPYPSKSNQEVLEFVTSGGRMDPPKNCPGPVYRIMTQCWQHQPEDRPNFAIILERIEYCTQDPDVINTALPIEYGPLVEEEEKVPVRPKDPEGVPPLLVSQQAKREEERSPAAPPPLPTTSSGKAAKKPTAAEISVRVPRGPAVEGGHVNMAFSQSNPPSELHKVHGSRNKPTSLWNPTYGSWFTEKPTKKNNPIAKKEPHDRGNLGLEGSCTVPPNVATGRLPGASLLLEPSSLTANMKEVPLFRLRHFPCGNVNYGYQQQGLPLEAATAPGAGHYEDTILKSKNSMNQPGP

For the compound `CCN(CCO)Cc1cc(Nc2nc(Nc3ccc4c(c3)N(CC)CCN(CC)C4)ncc2Cl)ccc1F` [Example 734, 2-({5-[5-Chloro-2-(1,4-diethyl-2,3,4,5-tetrahydro-1H-benzo[e][1,4]diazepin-8-ylamino)-pyrimidin-4-ylamino]-2-fluoro-benzyl}-ethyl-amino)-ethanol], the IC50 – broadly, the concentration at which inhibition is half-maximal – is less than 0.1 µM in assay [1] and greater than 10 µM in assay [2].
`CCN(CCO)Cc1cc(Nc2nc(Nc3cc4c(cc3OC)CCN(CC(=O)N(C)C)CC4)ncc2Cl)ccc1F` [Example 735, 2-{7-[5-Chloro-4-(3-{[ethyl-(2-hydroxy-ethyl)-amino]-methyl}-4-fluoro-phenylamino)-pyrimidin-2-ylamino]-8-methoxy-1,2,4,5-tetrahydro-benzo[d]azepin-3-yl}-N,N-dimethyl-acetamide]: the IC50 in assay [1] is less than 0.1 µM; in assay [2], greater than 10 µM.
`CCN1CC(=O)N(CC)c2cc(Nc3ncc(Cl)c(N[C@@H]4CCCC[C@H]4NS(C)(=O)=O)n3)c(OC)cc2C1` [Example 736, N,N-{(1R,2R)-2-[5-Chloro-2-(1,4-diethyl-7-methoxy-2-oxo-2,3,4,5-tetrahydro-1H-benzo[e][1,4]diazepin-8-ylamino)-pyrimidin-4-ylamino]-cyclohexyl}-methanesulfonamide]: the IC50 was 0.1 to 1 µM in assay [1] and greater than 10 µM in assay [2].
Regarding `CCN1CC(=O)N(CC)c2cc(Nc3ncc(Cl)c(Nc4ccc(OC)cc4-n4cccn4)n3)c(OC)cc2C1` [Example 737, 8-[5-Chloro-4-(4-methoxy-2-pyrazol-1-yl-phenylamino)-pyrimidin-2-ylamino]-1,4-diethyl-7-methoxy-1,3,4,5-tetrahydro-benzo[e][1,4]diazepin-2-one], the values for the IC50 in assay [1] and in assay [2] were less than 0.1 µM and greater than 10 µM, respectively.
For `CCN1CC(=O)N(CC)c2cc(Nc3ncc(Cl)c(Nc4ccccc4S(=O)(=O)N(C)C)n3)c(OC)cc2C1` [Example 738, 2-[5-Chloro-2-(1,4-diethyl-7-methoxy-2-oxo-2,3,4,5-tetrahydro-1H-benzo[e][1,4]diazepin-8-ylamino)-pyrimidin-4-ylamino]-N,Ndimethyl-benzenesulfonamide], the IC50 is less than 0.1 µM in assay [1] and greater than 10 µM in assay [2].
As for `CCN1CC(=O)N(CC)c2cc(Nc3ncc(Cl)c(N[C@H]4[C@@H](C(N)=O)[C@@H]5C=C[C@H]4C5)n3)c(OC)cc2C1` [Example 739, (1S,2,3R,4R)-3-[5-Chloro-2-(1,4-diethyl-7-methoxy-2-oxo-2,3,4,5-tetrahydro-1H-benzo[e][1,4]diazepin-8-ylamino)-pyrimidin-4-ylamino]-bicyclo(2.2.1)hept-5-ene-2-carboxylic acid amide], the IC50 is 0.1 to 1 µM in assay [1] and greater than 10 µM in assay [2].
For `CCN(CCO)Cc1cc(Nc2nc(Nc3ccc4c(c3OC)CCC(N3CCOCC3)CC4)ncc2Cl)ccc1F` (stereo not drawn) [Example 740, 2-([5-[5-Chloro-2-(1-methoxy-7-morpholin-4-yl-6,7,8,9-tetrahydro-5H-benzocyclohepten-2-ylamino)-pyrimidin-4-ylamino]-2-fluoro-benzyl}-ethylamino)-ethanol], in that order: less than 0.1 µM and greater than 10 µM.
Take `CCN1CC(=O)N(C)c2cc(Nc3ncc(Cl)c(N[C@H]4[C@@H](C(N)=O)[C@@H]5C=C[C@H]4C5)n3)c(OC)cc2C1` [Example 741]: the figures for the IC50 in assay [1] and in assay [2] were less than 0.1 µM and greater than 10 µM, respectively.
For `CCN1CC(=O)N(C)c2cc(Nc3ncc(Cl)c(Nc4ccc(OC)cc4-n4cccn4)n3)c(OC)cc2C1` [Example 742, 8-[5-Chloro-4-(4-methoxy-2-pyrazol-1-yl-phenylamino)-pyrimidin-2-ylamino]-4-ethyl-7-methoxy-1-methyl-1,3,4,5-tetrahydro-benzo[e][1,4]diazepin-2-one], the IC50 in assay [1] is less than 0.1 µM; in assay [2] it was greater than 10 µM.
As for `COc1cc2c(cc1Nc1ncc(Cl)c(N[C@H]3[C@@H](C(N)=O)[C@@H]4C=C[C@H]3C4)n1)N(C)C(=O)CNC2` [Example 743, (1S,2S3,R,4R)-3-[5-Chloro-2-(7-methoxy-1-methyl-2-oxo-2,3,4,5-tetrahydro-1H-benzo[e][1,4]diazepin-8-ylamino)-pyrimidin-4-ylamino]-bicyclo[2.2.1]hept-5-ene-2-carboxylic acid amide], the half-inhibitory concentration (IC50) was less than 0.1 µM in assay [1] and greater than 10 µM in assay [2].
Regarding `COc1cc2c(cc1Nc1ncc(Cl)c(N[C@H]3[C@@H](C(N)=O)[C@@H]4C=C[C@H]3C4)n1)N(C)C(=O)CN(CC#N)C2` [Example 744, (1S,2S,3R,4R)-3 [5-Chloro-2-(4-cyanomethyl-7-methoxy-1-methyl-2-oxo-2,3,4,5-tetrahydro-1H-benzo[e][1,4]diazepin-8-ylamino)-pyrimidin-4-ylamino]-bicyclo(2.2.1)hept-5-ene-2-carboxylic acid amide], the IC50 in assay [1] is 0.1 to 1 µM; in assay [2] it was greater than 10 µM.
As for `CCN1CC(=O)N(C)c2cc(Nc3ncc(Cl)c(N[C@@H]4CCCC[C@H]4NS(C)(=O)=O)n3)c(OC)cc2C1` [Example 745, N-[(1R,2R)-2-[5-Chloro-2-(4-ethyl-7-methoxy-1-methyl-2-oxo-2,3,4,5-tetrahydro-1H-benzo[e][1,4]diazepin-8-ylamino)-pyrimidin-4-ylamino]-cyclohexyl}-methanesulfonamide], the IC50 in assay [1] is 0.1 to 1 µM; in assay [2], greater than 10 µM.
On to `COc1cc2c(cc1Nc1ncc(Cl)c(N[C@@H]3CCCC[C@H]3NS(C)(=O)=O)n1)N(C)C(=O)CN(CC1CC1)C2` [Example 746, N-{(1R,2R)-2-[5-Chloro-2-(4-cyclopropylmethyl-7-methoxy-1-methyl-2-oxo-2,3,4,5-tetrahydro-1H-benzo[e][1,4]diazepin-8-ylamino)-pyrimidin-4-ylamino]-cyclohexyl}-methanesulfonamide], for which the IC50 in assay [1] was 0.1 to 1 µM; in assay [2], greater than 10 µM.
Consider `COc1ccc(Nc2nc(Nc3cc4c(cc3OC)CN(CC3CC3)CC(=O)N4C)ncc2Cl)c(-n2cccn2)c1` [Example 748, 8-[5-Chloro-4-(4-methoxy-2-pyrazol-1-yl-phenylamino)-pyrimidin-2-ylamino]-cyclopropylmethyl-7-methoxy-1-methyl-1,3,4,5-tetrahydro-benzo[e][1,4]diazepin-2-one], for which the half-maximal inhibitory concentration (IC50) was less than 0.1 µM in assay [1] and greater than 10 µM in assay [2].
On to `CCN1CC(=O)N(C)c2cc(Nc3ncc(Cl)c(Nc4ccc(OC)c(CNCCO)c4)n3)c(OC)cc2C1` [Example 749, 8-(5-Chloro-4-{3-[(2-hydroxy-ethylamino)-methyl]-4-methoxy-phenylamino}-pyrimidin-2-ylamino)-4-ethyl-7-methoxy-1-methyl-1,3,4,5-tetrahydro-benzo[e][1,4]diazepin-2-one], for which the IC50 is 0.1 to 1 µM in assay [1] and greater than 10 µM in assay [2].
Consider `COCCNC1CCc2cc(Nc3ncc(Cl)c(Nc4c(OC)ccc5c4CN(S(C)(=O)=O)CC(=O)N5)n3)c(OC)cc2CC1` (stereo not drawn) [Example 750, 6-{5-Chloro-2-[3-methoxy-7-(2-methoxy-ethylamino)-6,7,8,9-tetrahydro-5H-benzocyclohepten-2-ylamino]-pyrimidin-4-ylamino}-4-methanesulfonyl-7-methoxy-1,3,4,5-tetrahydro-benzo[e][1,4]diazepin-2-one], for which the IC50 in assay [1] was 1 to 10 µM; in assay [2], greater than 10 µM.
Take `COc1cc2c(cc1Nc1ncc(Cl)c(Nc3c(OC)ccc4c3CN(S(C)(=O)=O)CC(=O)N4)n1)CCN(CC(=O)N(C)C)CC2` [Example 751, 2-{7-[5-Chloro-4-(4-methanesulfonyl-7-methoxy-2-oxo-2,3,4,5-tetrahydro-1H-benzo[e][1,4]diazepin-6-ylamino)-pyrimidin-2-ylamino]-8-methoxy-1,2,4,5-tetrahydro-benzo[d]azepin-3-yl}-N,Ndimethyl-acetamide]: the IC50 was 1 to 10 µM in assay [1] and greater than 10 µM in assay [2].
Taken in the same sequence, the figures for `COc1cc2c(cc1Nc1ncc(Cl)c(N[C@@H]3CCCC[C@H]3NS(C)(=O)=O)n1)CCN(CC(F)F)CC2` [Example 762, N-((1R,2R)-2-{5-Chloro-2-[3-(2,2-difluoro-ethyl)-8-methoxy-2,3,4,5-tetrahydro-1H-benzo[d]azepin-7-ylamino]-pyrimidin-4-ylamino}-cyclohexyl)-methanesulfonamide] were less than 0.1 µM and greater than 10 µM.
For `COc1cc2c(cc1Nc1ncc(Cl)c(Nc3ccc(N4CCN(C)CC4)cc3OC)n1)CCN(CC(F)F)CC2` [Example 764, 5-Chloro-N*2*-[3-(2,2-difluoro-ethyl)-8-methoxy-2,3,4,5-tetrahydro-1H-benzo[d]azepin-7-yl]-N*4*-[2-methoxy-4-(4-methyl-piperazin-1-yl)-phenyl]-pyrimidine-2,4-diamine], in that order: less than 0.1 µM and greater than 10 µM.
As to `COc1cc2c(cc1Nc1ncc(Cl)c(Nc3ccc(N4CCN(C)CC4)c(C)c3)n1)CCN(CC(F)F)CC2` [Example 765, 5-Chloro-N*2*-[3-(2,2-difluoro-ethyl)-8-methoxy-2,3,4,5-tetrahydro-1H-benzo[d]azepin-7-yl]-N*4*-[3-methyl-4-(4-methyl-piperazin-1-yl)-phenyl]-pyrimidine-2,4-diamine], the figures for the concentration for half-maximal inhibition (IC50) in assay [1] and in assay [2] were less than 0.1 µM and greater than 10 µM, respectively.
Consider `CNC(=O)c1ccccc1Nc1nc(Nc2cc3c(cc2OC)CCN(CC(F)F)CC3)ncc1Cl` [Example 766, 2-{5-Chloro-2-[3-(2,2-difluoro-ethyl)-8-methoxy-2,3,4,5-tetrahydro-1H-benzo[d]azepin-7-ylamino]-pyrimidin-4-ylamino}-N-methyl-benzamide], for which the 50% inhibitory concentration (IC50) in assay [1] was less than 0.1 µM; in assay [2], 1 to 10 µM.
